From US5470714A, “One-step free fatty acid determination method” (Lidak Pharmaceuticals, priority 1993, dated 1995)
Numbering of substitutions follows the chain as printed.

Columns and labels:
[1] = molecular target: ADIFAB (Acrylodan derivatized native rat I-FABP, Lys27) (Rattus norvegicus, UniProt P02693); test: biochemical; format: binding; conditions: for rank of Kd, in words: among the long chain FA of Table I
Experimental: In most of the studies FFA was added to ADIFAB, in a buffer (A) consisting of 10 Mm HEPES, 150 Mm NaCI, 5 mM KCI, and 1 mM NaHPO4 at pH 7.4, as the sodium salt of the fatty acid. […] FA bind to most surfaces and values of the total FA concentration ([FAT]) were corrected for FA binding to cuvette and container walls. This binding was determined using trace amounts of […] labeled FA and, separately, ADIFAB florescence to determine the degree of FA loss upon transfer from one container to another. […] To minimize FA binding to surfaces, the monomer concentrations of stock solutions of the Na salts were maintained at pH >9.0 in water, and were warmed to >37° C. just prior to use. The polyunsaturated forms of the FA are subject to oxidation and it was observed that dissociation constants for binding to ADIFAB (Kd) were considerably greater for the oxidized FA. Care was taken to reduce the exposure of the FA salts to oxygen (all handling was carried out under Argon) and to store them at -20° C.
The concentrations of FA in the aqueous phase (FFA) and FA bound to ADIFAB ([FAb ]) were determined from the ratio of fluorescence emission intensities at 432 and 505 nm (R). The values FFA and [FAb ]were related to the ratio of intensities essentially by the method of Grynkiewicz et. al. (Grynkiewicz, G., Poenie, M., & Tsien, R. Y. (1985) J. Biol. Chem. 260, 3440-3450), according to which:
[FAb ]=[ADIFABtotal ]Q(fr)/(1-fr+FRQ) FR
are the ADIFAB intensities with zero and saturating concentrations of FFA, Ro is the intensity ratio in the absence of FFA and Rmax is the value when ADIFAB is saturated.
Because of the limiting solubility of long chain FA in aqueous solution Rmax and Q cannot. in general, be determined directly. To determine Rmax and Q, ADIFAB was titrated with lauric acid (12:0) whose high CMC allowed maximum R values (~10-11) to be measured that were considerably greater than with longer chain FA. From this titration a linear correlation was found between Q and R. Using Q, R pairs predicted by this relationship, a two parameter (Kd and Rmax) least squares analysis of each FA was done using the equation for equilibrium binding;
1/[FAb ]=(Kd/[ADIFAB])/FFA+1/[ADIFAB] (3)
Optimal Q and Rmax values obtained in this analysis were in the range 17-22 and 10 and 13, respectively, with average values of 19.5 and 11.5. Final Kd values for each FA were then determined by least squares analysis of equation (3) with Q and Rmax fixed at 19.5 and 11.5, respectively.
Fluorescence measurements to monitor Acrylodan fluorescence in various solvents, to monitor adduct formation, and to obtain complete spectra were carried out using an SLM 8000C fluorometer. Measurements of the 505/432 intensity ratios (R values) used to monitor the FFA titrations of ADIFAB were done with either the SLM 8000C or a Perkin-Elmer MPF-2A fluorometer.
ADIFAB dose response to FFA and FFA aggregate formation was measured. The ratio of fluorescent intensities at emission wavelengths of 505/432 nm were measured as a function of added Na salts of several FFA. Resulting data are depicted graphically in FIGS. 6A, 6B and 6C. Conditions were similar to those used in FIG. 3 except that 100mM EGTA was used in obtaining the data depicted in FIGS. 6A and 6B, while the data depicted in FIG. 6C was obtained using 1 mM CaCl2. Measured R values were used to determine FFA and [FFAb]using equations (1) and (2). The solid curves through the data of FIGS. 6A and 6C represent best fits of equation (3) obtained using a non-linear least squares algorithm. Aggregate formation was detected by measuring 90° light scattering from FFA in the buffer of FIG. 3 containing no added calcium and titrated with the Na salts of the FFA as described above, see FIG. 6B. The smoothed curves through the data, intended to guide-the-eye, indicate that aggregate formation, as detected by a sharp increase in light scattering, is approximately coincident with the maximum R value observed in the experiment related to FIG. 6A. […]

[2] = molecular target: T1, I-FABP (native, rat intestinal) (Rattus norvegicus, UniProt P02693); test: Tryptophan fluorescence of native I-FABP on addition of FFA; format: binding; conditions: as much as
T1 construct: made in house; host or cells: E. coli BL21 (pET11D)
T1 sequence (P02693 1-132): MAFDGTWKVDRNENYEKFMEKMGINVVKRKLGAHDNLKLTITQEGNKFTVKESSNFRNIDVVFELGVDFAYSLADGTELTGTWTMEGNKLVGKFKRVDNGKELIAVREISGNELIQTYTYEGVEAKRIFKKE
Experimental: In early work, cloning was carried out using a cDNA library from neo-natal rat intestine purchased from STRATAGENE (11099 North Torrey Pines Rd., La Jolla, CA 92037). The library is carried by the LAMBDA ZAP II vector and was used with the E. coil host strain XL 1Blue which is supplied with the library. The recombinant clone was identified with an oligonucleotide probe based upon the published sequence of the I-FABP DNA (Lowe, J. B., Sacchettini, J. C., Laposata, M., McQuillan, J. J. and Gordon, J. I. J. Biol. Chem. 262:5931, 1987) and sequencing of 5and 3regions was used to verify the identity and completeness of the gene. […] The I-FABP gene was removed from the lambda Zap vector and inserted into a PET expression vector (PET11 D) purchased from Novagen and the protein was expressed using the E. coil strains (BL2 1) also from Novagen (Madison, WI, USA). I-FABP is isolated from E. coil and purified as described, Lowe, J. B., Sacchettini, J. C., Laposata, M., McQuillan, J. J. and Gordon, J. I. J. Biol. Chem. 262:5931, 1987. In this procedure cells, after a 3-hour culture, are lysed, centrifuged to remove cell debris and the pellet frozen at -70 °C. The frozen pellet was allowed to thaw in the presence of a lysing buffer composed of 50mM Tris, 0.5mM EDTA, 0.5mM PMSF, 0.1% Triton X100, at pH 8.0. This was centrifuged at 20,000 g. for 45 minutes and the pellet was discarded. The lysate was then subjected to two rounds (50% and 70%) of ammonium sulfate precipitation and the supernatant from the 70% material was desalted and concentrated using an Amicon ultrafiltration apparatus with a YM10 filter. The flitrate was then subjected to DEAE-Sephadex (A50), followed by Sephadex G-75 chromatography and the low molecular weight fractions were saved. This material gives a single band on 12% PAGE and an amino acid analysis of this material was consistent with the amino acid sequence of I-FABP. […] The addition of FFA (oleate, stearate, or palmitate) reduced the tryptophan fluorescence of the native protein by as much as 40%.

[3] = Fluorescence response of fluorescent-FABP probes to fatty acid binding; format: biochemical
From the text: Principles and exemplary methods for constructing probes as described and defined herein and methods for determining FFA levels are described in detail below. Using these principles fourteen different fluorescent-FABP derivatives have been constructed. This has been done using 3 different native FABPs (rat intestine (I-FABP), human adipocyte (A-FABP), and human heart (H-FABP)) plus 4 site-specific mutants of two of these (I-FABP, (Thr83Cys83, Thr81Cys81, Lys27Cys27 and H-FABP, Thr27Lys27), and these proteins have been derivatized with 4 different fluorophores (acrylodan, danzyl aziridine, 4-[N-[(2-iodoacetoxy)ethyl]-N-methylamino]-7-nitrobenz-2-oxa1,3-diazole ester (IANBDE), 4-[N-[(2-iodoacetoxy)ethyl]-N-methylamino]-7-nitrobenz-2-oxa-1,3-diazole these derivatives can serve as FFA probes, to some degree. To date, however, ADIFAB remains the one that has optimal properties for current applications. Obviously, by occupying, partially, the binding site with a fluorophore, FA must compete for its site and therefore the FA binding constant for the FABP may be altered from the native protein. This is indeed the case for ADIFAB for which the Kd is about 10 fold greater than for the native protein. So long as FA can bind, however, the derivatized molecule can still function as a FFA probe and so long as the probe's dynamic range is sufficient (as it is for ADIFAB, IANBDE and IANBDA) then FFA levels over a wide range, including those that are physiologic, can be measured.
The Cys27 mutant of I-FABP (Lys27 to Cys27) with acrylodan, IANBDE and IANBDA have also been labeled using the technique described. […] This is the behavior predicted from the construction principles set forth herein, and reflects the shorter tethering arm to Cys27 as compared to Lys27 which prevents the deeper insertion into the binding site that is observed in the Lys27 derivative. […] Thus, those skilled in the art can with considerable confidence predict whether protein modifications and/or choice of label will result in a FFA responsive probe.
Site-directed mutagenesis was used to introduce a cysteine residue at positions 82 or 84, in place of the threonine residues that are normally at this position. Mutagenesis was carried out by annealing a synthetic prirner with a single mismatched base to the above derived expression vector. The primer was extended and ligated in vitro, and the resulting heteroduplex was used to transfect the host strain. The transfected host was screened for the mutated DNA by hybridization with the mutating oligonucleotide. Mutated plasmid DNA was isolated, retransformed into the host strain, and its structure confirmed by sequencing the recombinant DNA in regions defined by probes flanking the mutated region. This modified protein was expressed in the same system and purified by the same methods as for the native protein. Typical yields of purified protein were approximately 50 mg/liter cell culture. The mutated I-FABP protein was fluorescently derivatized by inserting a fluorescent group (which reacts specifically with free SH groups) at the newly created cysteine residue. The cysteine residue was inserted at positions 82 (replacing a threonine residue) and/or at residue 84 (also a threonine residue) since both these positions face outward from the FFA binding pocket but are in close proximity to the tryptophan at position 83 (about 3.5Å lateral separation along the b strand and about 10Å vertical separation between the centers of the tryptophan and fluorescent residues). […] Thus, either the direct emission of the fluorescent group and/or the rate of resonance energy transfer between Trp83 and the fluorescent group was postulated to change. In a non-limiting prior specific example, the dansyl derivative ACRYLODAN®(6-acryloly-2dimethylamenonaphthalene) was used to modify the mutated FABP and this probe was designated FAD508.
ADIFAB dose response to FFA and FFA aggregate formation was measured. […]

[4] = FA-ADIFAB Dissociation Constants, Kd, no added calcium, FIG. 6A, buffer A pH 7.4

CCCCCCCC/C=C\CCCCCCCC(=O)O [OLEATE, oleate]
Kd [1, 4]: 280 ± 10 nM | Kd ([1]; Kd in the presence of calcium, 1 mM calcium): 310 nM | rank of Kd, in words [1]: smallest Kds | reduction of the tryptophan fluorescence of the native protein [2]: ≤ 40%

CCCCCCCCCCCCCCCC(=O)O [PALMITATE, palmitate]
Kd [1, 4]: 320 ± 10 nM | rank of Kd, in words [1]: smallest Kds | Kd relative to oleate (fold greater than oleate) ([1]; normalized to oleate): about 1.1 fold | reduction of the tryptophan fluorescence of the native protein [2]: ≤ 40%

CCCCCCCCCCCCCCCCCC(=O)O [stearate]
reduction of the tryptophan fluorescence of the native protein [2]: ≤ 40%

B1: Lys27 on I-FABP with danzyl aziridine: Lys27 on I-FABP with danzyl aziridine has been derivatized (conjugate, UniProt P02693 2-132, looked up)
Fatty acid-binding protein, …: AFDGTWKVDRNENYEKFMEKMGINVVKRKLGAHDNLKLTITQEGNKFTVKESSNFRNIDVVFELGVDFAYSLADGTELTGTWTMEGNKLVGKFKRVDNGKELIAVREISGNELIQTYTYEGVEAKRIFKKE
modifications: dansyl aziridine label at Lys27
notes: Lys27 on I-FABP with danzyl aziridine has been derivatized
responsiveness of the probe to FA binding, in words [3]: exhibits an increase in 450 nm fluorescence upon FA binding

B2: Cys27 mutant of I-FABP with acrylodan: Cys27 mutant of I-FABP (Lys27 to Cys27) with acrylodan (conjugate, UniProt P02693 2-132, looked up, variant K27C)
Fatty acid-binding protein, …: B1 Fatty acid-binding protein, … with K27C
modifications: acrylodan label
responsiveness of the probe to FA binding, in words [3]: the relative change upon FA binding is smaller than for ADIFAB

B3: Native A-FABP labeled with acrylodan: Native A-FABP which contains two cysteines, was labeled with acrylodan (conjugate, UniProt P15090 2-132, looked up)
Fatty acid-binding protein, …: CDAFVGTWKLVSSENFDDYMKEVGVGFATRKVAGMAKPNMIISVNGDVITIKSESTFKNTEISFILGQEFDEVTADDRKVKSTITLDGGVLVHVQKWDGKSTTIKRKREDDKLVVECVMKGVTSTRVYERA
modifications: acrylodan label
responsiveness of the probe to FA binding, in words [3]: only poorly responsive

B4: Native A-FABP labeled with NBD: Native A-FABP labeled with the N-[7-(4-nitrobenzo-2-oxa-1,3-diazol) (NBD) moieties (conjugate, UniProt P15090 2-132, looked up)
Fatty acid-binding protein, …: B3 Fatty acid-binding protein, …
modifications: NBD label
notes: Native A-FABP labeled with the N-[7-(4-nitrobenzo-2-oxa-1,3-diazol) (NBD) moieties
responsiveness of the probe to FA binding, in words [3]: only poorly responsive
